Source: PMC8842277, “Highly Antiproliferative Latonduine and Indolo[2,3-c]quinoline Derivatives: Complex Formation with Copper(II) Markedly Changes the Kinase Inhibitory Profile” (Journal of Medicinal Chemistry, 2022)

Tests used:
calf thymus DNA (ct-DNA) = assay: Ethidium bromide displacement and fluorescence lifetime; format: binding; conditions: 10 μM ct-DNA, 5 μM EtBr, 10 mM HEPES, pH 7.40
Experimental: The interaction of 4 and 8 and HL^4 and HL^8 with ct-DNA was investigated by spectrofluorometry in ethidium bromide (EtBr) displacement studies. EtBr is a fluorescent probe, and its fluorescence intensity increases upon intercalation into the DNA helix. […] Decrease in the fluorescence may indicate (i) the displacement of EtBr or (ii) (partial) quenching of the fluorescence of the bound probe. In order to separate these processes, fluorescence lifetime measurements were carried out. […] In addition, they provided evidence that the two copper(II) complexes bind to ct-DNA. However, complex 8 replaced EtBr more effectively than 4. […]
Fluorescence measurements were carried out on a Fluoromax (Horiba Jobin Yvon) fluorometer. […] The excitation wavelengths were 510 or 455 nm, and the fluorescence emission was measured in the range 530–750 nm. Corrections for self-absorbance and inner filter effect were done according to our former work.[106] Fluorescence lifetime was measured on the same fluorometer equipped with a DeltaHub time-correlated single photon counting (TCSPC) controller using a NanoLED light source N-455 (Horiba Jobin Yvon). […] The fluorescence intensity decay over time is described by a sum of exponentials, [drawing 3] […] Fractional intensities were calculated as described in our former work.[105] […]

Colo320 cells = assay: Apoptosis assay, Annexin-V-FITC/PI flow cytometry; conditions: 3 h induction
Experimental: An apoptosis assay was performed by flow cytometry via the analysis of multidrug-resistant Colo320 cells stained with Annexin-V-FITC and propidium iodide (PI).
Colo320 cells were treated at the indicated concentration of the compounds. The dual parametric dot plots combining Annexin-V (FL1) and PI (FL3) fluorescence show the viable cell population in the lower left quadrant Annexin-V–/PI– (Q4), the early apoptotic cells in the lower right quadrant Annexin-V+/PI– (Q3), and the late apoptotic and necrotic cells in the upper right quadrant Annexin-V+/PI+ (Q2).
The assay was carried out for selected compounds using an Annexin V-FITC Apoptosis Detection Kit (cat. no. APOAF-50TST) from Sigma according to the manufacturer’s instructions. The concentration of the Colo320 cell suspension was adjusted to approximately 0.5 × 10^6 cells/mL in an RPMI 1640 medium, and the cell suspension was distributed in 1 mL of aliquots into a 24-well plate and then incubated overnight at 37 °C and 5% CO2. On the following day, the medium was removed and replaced by 1 mL of RPMI medium containing the compounds except the control samples. […] After the incubation period, the samples were washed with PBS and fresh RPMI 1640 medium was added to the samples. The cells were incubated overnight at 37 °C and 5% CO2. The next day, 200 μL of 0.25% Trypsin (Trypsin-Versen) was added to the samples until cells appeared detached followed by the addition of 400 μL of RPMI 1640 medium supplemented with 10% bovine serum. The cells were collected in Eppendorf tubes and centrifuged at 2000g for 2 min. The harvested cells were resuspended in fresh serum-free RPMI 1640 culture medium. After this step, the apoptosis assay was carried out according to the instructions of the manufacturer. The fluorescence was analyzed immediately using a ParTec CyFlow flow cytometer (Partec GmbH, Münster, Germany).
• Apoptosis and DNA binding studies […]

[1] = Aqueous stability in HEPES and PBS buffer by UV–vis; format: physicochemical; conditions: pH 7.40, 10 mM HEPES or PBS, several hours
Experimental: Prior to the biological assays, the aqueous stability of selected compounds (HL^4, 4, HL^8, and 8) was measured as a function of time by UV–vis spectrophotometry at pH = 7.40 in 10 mM HEPES in PBS and in blood serum diluted by factor 3 (dilutions were made in HEPES and in PBS as well). […] This process took several hours, and it was in all cases less pronounced in the PBS buffer than in the HEPES medium.
(§1) Aqueous stability of 4, 8, and HL^4 was investigated in phosphate-buffered saline (PBS) and 10 mM HEPES buffers and in three-times diluted blood serum (Sigma Aldrich, from human male AB plasma) at pH = 7.40. The concentration of the compounds was between 5 and 10 μM. Blood serum was filtered on a 1.25 μm polyethersulfone membrane syringe filter and diluted with 10 mM HEPES or PBS buffer.

[2] = Stability in diluted blood serum by UV–vis; format: in vitro ADME, human; conditions: pH 7.40, diluted with HEPES or PBS
Experimental: Measurements with diluted serum show a more elaborate picture. […] The new band cannot be undoubtedly attributed to the liberation of ligand HL^8.
as §1

Compound | Effect on fluorescence of the EtBr–ct-DNA system (calf thymus DNA (ct-DNA)) | Cell death % Q1 (Colo320 cells; 0.5 µM) | Early apoptosis % Q3 (Colo320 cells; 0.5 µM) | Late apoptosis and necrosis % Q2 (Colo320 cells; 0.5 µM) | Cell death % Q1 (Colo320 cells; 2 µM) | Early apoptosis % Q3 (Colo320 cells; 2 µM) | Late apoptosis and necrosis % Q2 (Colo320 cells; 2 µM) | Behaviour in buffer solutions over time [1] | Behaviour in blood serum diluted by factor 3 [2] | Cell death % Q1 (Colo320 cells; 0.25 µM) | Early apoptosis % Q3 (Colo320 cells; 0.25 µM) | Late apoptosis and necrosis % Q2 (Colo320 cells; 0.25 µM)
CC(=NNc1nc2ccccc2c2c1[nH]c1ccc(Br)cc12)c1ccc(CN2CCOCC2)cn1.[Cl][Cu][Cl] [compound 8, CuCl2(HL^8)·H2O] | decreased the emission intensity | 4.52% | 6.01% | 12.1% | 1.76% | 6.91% | 6.97% | slow precipitation | partial decomposition of the complex |  |  | 
CC(=NNC1=NCc2ccccc2-c2c1[nH]c1ccc(Br)cc21)c1ccc(CN2CCOCC2)cn1.[Cl][Cu][Cl] [compound 4, CuCl2(HL^4)·0.5H2O] | decreased the emission intensity | 4.76% | 5.18% | 11.6% |  |  |  | slow precipitation | a similar behavior was observed, even though changes were smaller | 5.10% | 7.48% | 12.7%
